Measured values as given in patent EP0051852A1, “Pyrimido(4,5-b)(1,4)thiazines and process for their preparation” (Stiftung Forschungsinstitut Borstel, priority 1980, dated 1982).

Tested on: E.coli(mutaflor)
Assay: Bacterial growth kinetics, Coulter Counter (total cell count)
Type: cell-based
Set-up: unit not given here
Settings: Coulter Counter (Gesamtkeimzahl); 75.0 µmol/l PTZ alone; 37°C, modified Sauton medium
Text: 2,4-Diamino-5-(3',4',5'-trimehoxybenzvl)-pyrimidins (TMP) können auf ihre eigene und in Kombination potenzierte antimikrobielle Wirkung mit Hilfe der Bakterienvermehrungskinetik wie folgt geprüft werden: • Es werden zu Bakterienkulturen (Beispiel E.coli) in der logarithmischen Wachstumsphase die genannten Inhibitoren allein oder in den oben beschriebenen Kombinationen hinzugefügt. Die Veränderung der Zahl der Bakterien als Funktion der Zeit wird mit einem Coulter Counter (Gesamtkeimzahl) bzw. mit Hilfe der Kolonienzählung (Plattentest,Lebendkeimzahl) ermittelt. Die Vermehrungskurven werden bei Abwesenheit und bei Anwesenheit der Hemmstoffe und ihrer oben beschriebenen Kombinationen ermittelt. Die aus ihnen ermittelten Änderungen in den Vermehrungsgeschwindigkeiten sin^dein Maß für die antibakterielle Wirkung.
TMP wurde 1,5 Stunden später als die anderen Verbindungen der Kultur zugesetzt.

## Nc1nc(O)c2c(n1)SCC(CO)=N2 [PTZ, 2-Amino-4-hydroxy-6-hydroxymethyl-7H-pyrimido[4,5b][1,4]thiazin]
  beobachtete Vermehrungsgeschwindigkeitskonstanten kbeob.: 3.82
